Tests used:
2-HG plasma levels = assay: Phase 1/2 study AG221-C-001: pharmacodynamic response (2-HG plasma levels); assay type: in vivo, human
Protocol: 2HG can be detected in a sample by the methods of PCT Publication No. WO 2011/050210 and US Publication No. US2012/0121515 hereby incorporated by reference in their entirety, or by analogous methods. In an exemplary method, 2HG can be detected in a sample by LC/MS. The sample is mixed 80:20 with methanol, and centrifuged at 3,000 rpm for 20 minutes at 4 degrees Celsius. The resulting supernatant can be collected and stored at −80 degrees Celsius prior to LC-MS/MS to assess 2-hydroxyglutarate levels. A variety of different liquid chromatography (LC) separation methods can be used. Each method can be coupled by negative electrospray ionization (ESI, −3.0 kV) to triple-quadrupole mass spectrometers operating in multiple reaction monitoring (MRM) mode, with MS parameters optimized on infused metabolite standard solutions. Metabolites can be separated by reversed phase chromatography using 10 mM tributyl-amine as an ion pairing agent in the aqueous mobile phase, according to a variant of a previously reported method (Luo et al. J Chromatogr A 1147, 153-64, 2007). One method allows resolution of TCA metabolites: t=0, 50% B; t=5, 95% B; t=7, 95% B; t=8, 0% B, where B refers to an organic mobile phase of 100% methanol. Another method is specific for 2-hydroxyglutarate, running a fast linear gradient from 50%-95% B (buffers as defined above) over 5 minutes. A Synergi Hydro-RP, 100 mm×2 mm, 2.1 μm particle size (Phenomonex) can be used as the column, as described above. Metabolites can be quantified by comparison of peak areas with pure metabolite standards at known concentration. Metabolite flux studies from ^13C-glutamine can be performed as described, e.g., in Munger et al. Nat Biotechnol 26, 1179-86, 2008. […]
Subjects in the dose escalation phase and Part 1 Expansion also will undergo PK/PD assessments over a 10-hour period on C1D15, C2D1, and C4D1. […] Available bone marrow biopsy samples also will be assessed for 2-HG and α-KG levels. […]

[1] = tested on: rrAML with an IDH2 mutation; assay: FLT3 mutation status and Compound 1 response in rrAML patients of the Example 1 trial (FoundationOne Heme panel, LabPMM PCR); assay type: in vivo, human
Protocol: A subset of the clinical samples from the trial described in Example 1 were analyzed at screening. Sample types included bone marrow, peripheral blood and mononuclear cells isolated from bone marrow or peripheral blood. DNAs were extracted from these samples and sequenced at Foundation Medicine (Heme Panel, see http://foundationone.com/learn.php) using next generation sequencing technique.
Overall response rate (ORR), the primary efficacy endpoint, is defined as the rate of responders including complete remission (CR), CR with incomplete platelet recovery (CRp), marrow CR (mCR) (morphologic leukemia-free state [MLFS] for subjects with AML), CR with incomplete hematologic recovery (CRi), and partial remission (PR). Other measures of clinical activity including complete remission rate (CRR), duration of remission/response, event-free survival, overall survival, and time to remission/response will be summarized.
FoundationOne Heme panel analysis was performed on 100 screening samples from rrAML patients in the trial described in Example 1. Sample types included peripheral blood and bone marrow.
Therefore, the lower frequency reported in the above study is likely due to lack of recruitment of patients with FLT3-ITD mutations.
Tables 8 provides a contingency table indicating lack of statistical significance for lower ORR observed in efficacy evaluable patients presenting with FLT3-ITD and Table 9 provides a contingency table indicating statistical significance of lower ORR seen in patients presenting with either FLT3-ITD or FLT3 point mutation (PM).

[2] = FLT3-ITD+ efficacy evaluable patients
[3] = FLT3-ITD+/PM+ patients (either FLT3-ITD or FLT3 point mutation)
[4] = FLT3-ITD− efficacy evaluable patients

With CC(C)(O)CNc1nc(Nc2ccnc(C(F)(F)F)c2)nc(-c2cccc(C(F)(F)F)n2)n1 [COMPOUND 1, 2-methyl-1-[(4-[6-(trifluoromethyl)pyridin-2-yl]-6-{[2-(trifluoromethyl)pyridin-4-yl]amino}-1,3,5-triazin-2-yl)amino]propan-2-ol] the “reduction in 2-HG plasma levels” value (2-HG plasma levels; by Day 1 of Cycle 2, subjects of AG221-C-001) was “sustained reduction”, the “inhibition of 2-HG plasma levels” value (2-HG plasma levels; most subjects with R140Q mutation, all doses) was “up to 98%” and the “exposure and inhibition of 2-HG in relation to dose” value (2-HG plasma levels; subjects with R172K mutation) was “Increasing dose is associated with higher exposure and inhibition of 2-HG”. The “No Response (number of patients)” value [1, 2] was 3, the “Response (number of patients)” value [1, 2] was 0 and the ORR ([1]; FLT3-ITD+ patients) was 0%. The “No Response (number of patients)” value [1, 3] was 9, the “Response (number of patients)” value [1, 3] was 1 and the ORR ([1]; FLT3-ITD+/PM+ patients (mFLT3)) was 10.0%. The “No Response (number of patients)” value [1, 4] was 38, the “Response (number of patients)” value [1, 4] was 33 and the “No Response (number of patients)” value ([1]; FLT3-ITD−/PM− patients) was 42. The “Response (number of patients)” value ([1]; FLT3-ITD−/PM− patients) was 40, the “Odds ratio (response, mFLT3 vs FLT3-ITD−/PM−)” value ([1]; Fisher's Exact test, p = 0.039) was 0.117 and the “Odds ratio (response, FLT3-ITD+ vs FLT3-ITD−)” value ([1]; Fisher's Exact test, p = 0.249) was 0.164.
